A word on the IC50: it is the concentration that inhibits the measured activity by half. Read a high IC50 as a need for much substance.

The values below come from ChEMBL document CHEMBL1131919, “Monocarboxylic-based phosphotyrosyl mimetics in the design of GRB2 SH2 domain inhibitors” (Bioorg Med Chem Lett, 1999).

The target in the experiment is Growth factor receptor-bound protein 2 (Homo sapiens, UniProt P62993). The experiment is described as follows: Inhibitory concentration against Growth factor receptor bound protein 2 in MDA-MB-453 cells. It is filed as cell-based.
Growth factor receptor-bound protein 2, sequence (P62993 whole entry): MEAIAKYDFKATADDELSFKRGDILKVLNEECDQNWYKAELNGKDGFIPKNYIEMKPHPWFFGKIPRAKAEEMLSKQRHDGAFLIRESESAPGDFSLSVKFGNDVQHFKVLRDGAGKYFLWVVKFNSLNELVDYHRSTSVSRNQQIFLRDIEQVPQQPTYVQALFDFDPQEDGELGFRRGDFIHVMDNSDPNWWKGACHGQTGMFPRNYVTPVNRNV
For the molecule `CC(=O)N[C@H](Cc1ccc(C(F)(F)C(=O)O)cc1)C(=O)NC1(C(=O)N[C@@H](CC(N)=O)C(=O)NCCCc2cccc3ccccc23)CCCCC1`, the IC50 is 28 µM.

Molecule `NC(=O)C[C@H](NC(=O)C1(NC(=O)[C@@H](Cc2ccc(OCC(=O)O)cc2)NC(=O)C(=O)O)CCCCC1)C(=O)NCCCc1cccc2ccccc12` gave an IC50 of 15 µM.

In turn, `NC(Cc1ccc(C(F)(F)C(=O)O)cc1)C(=O)O` (stereo not given) returned an IC50 of 28 µM.

Molecule `NC(Cc1ccc(CC(=O)O)cc1)C(=O)O` (stereo not given) showed an IC50 of 65 µM.

Take `NC(Cc1ccc(OCC(=O)O)cc1)C(=O)O` (stereo not given): half-maximal inhibition (IC50) required 2.5 µM.

The molecule `CC(=O)N[C@H](Cc1ccc(OP(=O)(O)O)cc1)C(=O)NC1(C(=O)N[C@@H](CC(N)=O)C(=O)NCCCc2cccc3ccccc23)CCCCC1` showed an IC50 of 0.007 µM.

Regarding `CC(=O)N[C@H](Cc1ccc(OCC(=O)O)cc1)C(=O)NC1(C(=O)N[C@@H](CC(N)=O)C(=O)NCCCc2cccc3ccccc23)CCCCC1`, half-maximal inhibition (IC50) required 65 µM.

On to `NC(=O)C[C@H](NC(=O)C1(NC(=O)[C@@H](Cc2ccc(C(F)(F)C(=O)O)cc2)NC(=O)C(=O)O)CCCCC1)C(=O)NCCCc1cccc2ccccc12`, for which it took 2 µM to reach half-maximal inhibition (IC50).

`NC(=O)C[C@H](NC(=O)C1(NC(=O)[C@@H](Cc2ccc(CC(=O)O)cc2)NC(=O)C(=O)O)CCCCC1)C(=O)NCCCc1cccc2ccccc12` displayed an IC50 of 0.6 µM.

Molecule `CC(=O)N[C@H](Cc1ccc(CC(=O)O)cc1)C(=O)NC1(C(=O)N[C@@H](CC(N)=O)C(=O)NCCCc2cccc3ccccc23)CCCCC1` returned an IC50 of 2.5 µM.
